In paper PMC10989020, “Preclinical characterization of a non-peptidomimetic HIV protease inhibitor with improved metabolic stability” (Antimicrobial Agents and Chemotherapy, 2024):
Like-named read-outs stand apart in the source and are kept apart here.

How the values were obtained:
[1] = system: HIV-1LAI wild type and site-directed PR mutants; assay: microbe, parasite or virus in culture; assay type: cell-based
[2] = system: HIV-1 mutants resistant to NRTIs, NNRTIs, INSTIs
[3] = system: HIV-1IIIb; assay: Two-drug in vitro combination assay in MT-2 cells (MacSynergy II); assay type: cell-based; conditions: for Combination effect: pairwise combination with GS-9770; for Antagonism volume / Synergy volume: pairwise combination with GS-9770, 99% confidence, MT-2/HIV-1IIIb
Experimental: Anti-HIV-1 assays evaluating the in vitro antiviral effect of two-drug combinations were performed in MT-2 cells as previously described ([26]). Data were normalized to positive and negative controls in each plate and expressed as a percentage of protection from CPE-dependent cell death and analyzed with the MacSynergy II software. Combination data were analyzed at the 99% confidence level, with synergy/antagonism volumes defined as follows: high synergy (>100 µM^2%), moderate synergy (50 to <100 uM^2%), additivity (>−50 to <50 µM^2%), and antagonism (<−50 µM^2%).

[4] = system: 20 HIV-1 clinical isolates; assay: Antiviral assay in PBMCs with HIV-1 clinical isolates (RT endpoint); assay type: cell-based; conditions: Human immunodeficiency virus 1, PBMC
Experimental: (§1) Antiviral assays using fresh human PBMCs independently infected with a panel of clinical HIV-1 and HIV-2 isolates were performed by Southern Research as a contracted research study and assessed 7 days post-infection using reverse transcriptase (RT) endpoint assay. Antiviral assays using HIV-1 reporter viruses containing patient-derived sequences encoding all of PR and a portion of RT (amino acids 1–313) and conferring resistance to FDA-approved HIV PIs were performed by Monogram Biosciences Inc. (South San Francisco, CA) using their previously described Phenosense assay ([25]).

[5] = system: two HIV-2 isolates; assay: Antiviral assay in PBMCs with HIV-2 clinical isolates (RT endpoint); assay type: cell-based; conditions: Human immunodeficiency virus 2, PBMC, 168 h, 7-day, RT activity
Experimental: as §1

[6] = system: panel of 49 patient-derived HIV-1 reporter viruses with PI resistance-associated substitutions; assay type: cell-based; conditions: of 49 PI-resistant clinical isolates

## O=C1Nc2ccc(Cl)cc2[C@@](C#CC2CC2)(C(F)(F)F)O1 [EFV, efavirenz]
[1]; Human immunodeficiency virus 1, PR L24I M46L A77I V82A
  EC50: 1.1 ± 0.1 nM
[1]; Human immunodeficiency virus 1, PR L24I M46L I64V A77I V82A
  EC50: 1 ± 0.2 nM
[1]; Human immunodeficiency virus 1, PR M46L A77I V82A
  EC50: 1 ± 0.2 nM
[1]; Human immunodeficiency virus 1, PR V82A
  EC50: 1.2 ± 0.6 nM
[1]; Human immunodeficiency virus 1, Wild type (WT) HIV-1LAI
  EC50: 1.3 ± 0.7 nM
[1]; PR L24I M46L A77I V82A
  fold-change relative to WT: 0.9 fold
[1]; PR L24I M46L I64V A77I V82A
  fold-change relative to WT: 0.8 fold
[1]; PR M46L A77I V82A
  fold-change relative to WT: 0.8 fold
[1]; PR V82A
  fold-change relative to WT: 1.0 fold
[1]; Wild type (WT) HIV-1LAI
  fold-change relative to WT: 1.0 fold
[2]; K103N
  Fold resistance (mutant/wildtype EC50 ratio): 14 ± 12
[2]; K103N+Y181C
  Fold resistance (mutant/wildtype EC50 ratio): 11 ± 5
[2]; L100I+K103N
  Fold resistance (mutant/wildtype EC50 ratio): >30
[2]; Y181C
  Fold resistance (mutant/wildtype EC50 ratio): 3.5 ± 0.6
[2]; Y188L
  Fold resistance (mutant/wildtype EC50 ratio): >30

## CC(C)(C#Cc1ccc(-c2ccc(Cl)c3c(NS(C)(=O)=O)nn(CC(F)(F)F)c23)c([C@H](Cc2cc(F)cc(F)c2)NC(=O)Cn2nc(C(F)(F)F)c3c2C(F)(F)[C@@H]2C[C@H]32)n1)S(C)(=O)=O [LEN, lenacapavir]
[3]
  Combination effect: Highly synergistic
  Antagonism volume: −0.6 ± 1.7 µM^2.%
  Synergy volume: 201 ± 111 µM^2.%

## Cc1cc(/C=C/C#N)cc(C)c1Nc1ccnc(Nc2ccc(C#N)cc2)n1 [RPV, rilpivirine]
[3]
  Combination effect: Highly synergistic
  Antagonism volume: 0 ± 0 µM^2.%
  Synergy volume: 184 ± 65 µM^2.%

## O=C(NCc1c(F)cc(F)cc1F)c1cn2c(c(O)c1=O)C(=O)N1[C@H]3CC[C@H](C3)O[C@@H]1C2 [BIC, bictegravir]
[3]
  Combination effect: Highly synergistic
  Antagonism volume: −11 ± 13 µM^2.%
  Synergy volume: 156 ± 49 µM^2.%

## CC(C)CN(C[C@@H](O)[C@H](Cc1ccccc1)NC(=O)O[C@H]1CO[C@H]2OCC[C@H]21)S(=O)(=O)c1ccc(N)cc1 [DRV, darunavir]
[4]; 168 h, read-out: mean EC50
  EC50: 3.2 nM
[4]; read-out: EC50 range
  EC50: 0.8 to 9.2 nM
[5]
  EC50: 8.5 nM
[6]
  isolates with complete loss of activity: 5
